From patent US20210189342A1, “COMPOSITIONS AND METHODS FOR MODULATING MONOCYTE AND MACROPHAGE INFLAMMATORY PHENOTYPES AND IMMUNOTHERAPY USES THEREOF” (Verseau Therapeutics, Inc., priority 2018, published 2021)

Tests used:
Format in all cases: cell-based, human
[1] = test system: peripheral blood mononuclear cells (PBMCs); settings: SEB assay, 5 μg/ml, FIG. 5
dissociated tumors = assay: dissociated tumor assay; settings: 10 ug/mL, 24 or 48 hrs, FIG. 8
From the text: One system used for this purpose was a dissociated tumor assay. Dissociated tumors contain all the various cell populations present in the tumor microenvironment, including, for example, tumor cells, immune cells, and support cells. These viable single cell suspensions are useful for many applications and allow for the normalization of cell number and composition within each replicate of an experiment. For performing dissociated tumor experiments upon acquisition of fresh tumor tissue (less than 24 hrs), surrounding fat, fibrous areas, and necrotic areas were removed from a tumor sample using scissors and scalpels. The tumor was cut into small pieces of 2-4 mm^3. The Tumor Dissociation Kit enzyme mix (MACS Miltenyi Biotec) was prepared according to the manufacturer's protocol. Tumor pieces and dissociation enzymes were transferred into 5 ml Snaplock Microcentrifuge tubes and the tissue was minced using a pair of straight scissors. Tubes were placed in a 37° C. shaker at 200-250 rpm for 45 minutes to 1 hour. At the end of the incubation time, the digested tumor was filtered through […] cell strainers into 50 mL Falcon™ conical centrifuge tubes. […] At the end of the study, cytokines/chemokines in the culture supernatant were measured using the Invitrogen™ Luminex™ Cytokine Human Magnetic 25-Plex Panel according to the manufacturer's instructions. […]

tumor tissue slices = assay: tumor tissue slice cultures; settings: 10 ug/mL
From the text: A second system was used to further confirm the results of the dissociated tumor assays. Briefly, dissociated tumor assays have the advantage of being able to normalize the number of cells in every condition performed. They also have the potential downside of losing the tumor structure and non-cellular stromal components. […] Upon acquisition of fresh tumor tissue sample (less than 24 hrs), surrounding fat, fibrous, and necrotic areas were removed from the tumor sample as much as possible using scissors and scalpels. The tissue was embedded in the center of a tissue mold using 4% agarose. After solidifying, the agarose block was dislodged, and the mold was glued to a Leica VT1000 S microtome tissue holder and sectioned into 300 to 400 micron sections using the Leica VT1000 S microtome. […] At the end of the study, efficacy was evaluated by analyzing cytokine/chemokine amounts secreted into the culture supernatant measured using the Invitrogen™ Luminex™ Cytokine Human Magnetic 25-Plex Panel according to the manufacturer's instructions. […]

pembrolizumab
T cell activity (IFNg production) ([1]; donor 2): no increase in T cell activity
T cell-specific response as indicated by IFNg production ([1]; donor 5): increase in T cell-specific response
IFNg production (dissociated tumors): stimulating IFNg production
IL-10 production (dissociated tumors): induces immunosuppressive IL-10
cytokine response (tumor tissue slices; GI tumor, FIG. 9B): do not provide a response
cytokine response (IFNg, TNFα) (tumor tissue slices; lung tumor, FIG. 9A): showed a response
